Source: patent publication US20110105397A1, “METHOD FOR TREATING HEART FAILURE WITH STRESSCOPIN-LIKE PEPTIDES” (priority 2009, published 2011)
Several values for one entry are separate records, joined by “and”; a condition that tells them apart may be missing. Equal values may be shown once. Read-outs that look alike come from different tables or passages of the source. Where a SMILES comes first, the peptide text is derived from it. Where no end group is shown, it is not given here. The star is where a group is joined. Succinimide(1-Et,3-yl) = CCN1C(=O)CC(*)C1=O

Target: T1, human CRHR2 (Homo sapiens, UniProt Q13324)
T1 construct: expressed in transfected cells
T1 sequence (Q13324 1-411): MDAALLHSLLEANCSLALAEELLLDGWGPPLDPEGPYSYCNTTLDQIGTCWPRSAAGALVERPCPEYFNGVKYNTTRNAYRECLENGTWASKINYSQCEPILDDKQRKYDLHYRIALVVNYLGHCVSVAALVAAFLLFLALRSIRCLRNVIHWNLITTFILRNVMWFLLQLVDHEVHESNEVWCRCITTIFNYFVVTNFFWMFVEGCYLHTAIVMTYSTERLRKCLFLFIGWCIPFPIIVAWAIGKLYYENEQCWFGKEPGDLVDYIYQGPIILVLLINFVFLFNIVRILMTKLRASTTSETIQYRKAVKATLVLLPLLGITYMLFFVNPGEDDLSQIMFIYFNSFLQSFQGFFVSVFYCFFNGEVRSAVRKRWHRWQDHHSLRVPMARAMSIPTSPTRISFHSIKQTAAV
Assay: cAMP assay, h-CRHR2 transfected SK-N-MC cells
Format: cell-based
Details: for EC50: read-out: pA50 (converted); for Log DR [M]: h-SCP control pA50 minus test compound pA50 within the same assay batch
Method: The concentration required for 50% maximum effect (A50) was 0.4 nM.
Human CRHR1 (accession number X72304) or CRHR2 (accession number U34587) were cloned into pcDNA3.1/Zeo expression vector and stably transfected into SK—N-MC cells by electroporation. Cells were maintained in MEM w/Earl's Salt with 10% FBS, 50 I.U. penicillin, 50 μg/ml streptomycin, 2 mM L-glutamine, 1 mM sodium pyruvate and 0.1 mM non-essential amino acids, 600 μg/ml G418. Cells were grown at 37° C. in 5% CO2
Cells were plated in 96-well tissue culture dishes (Biocoat from BD Biosciences) overnight at 50,000 cell/well. Cells were washed with PBS then resuspended in DMEM F-12 without phenol red, containing 10 μM isobutylmethylxanthine (IBMX). Cells were incubated with the peptides at concentrations ranging from 1 pM to 10 μM for 60 min at 37° Celsius. […] Forskolin (10 μM), a direct stimulant of adenylate cyclase, was used as positive control. The assays were stopped by the addition of 0.5 M HCl and mixing by orbital rotation for 2 h at 4° Celsius.
To assess the activity of the inventive polypeptide at the CRHR2, an intracellular cAMP measurement test using a Flash plate radioactive assay (Catalog No. Cus56088; Perkin Elmer, Mass., U.S.A.) was employed.
Transfected SK—N-MC cells were plated in 96-well Biocoat tissue culture dishes (BD Biosciences, San Jose, Calif., U.S.A) overnight at 50,000 cell/well. Cells were first washed with PBS and then suspended with DMEM/F-12 without phenol red, containing […]. Suspended cells were transferred into a 96-well flash plate coated with scintillant fluid. Cells were incubated with peptides ranging from 1 pM to 1 μM, for 60 min, at 37° Celsius. Forskolin at 10 μM was used as positive control. After ligand stimulation, cells were lysed by the addition of 0.5M HCl and mixed by orbital rotation for 2 h at 4° Celsius in order to release intracellular cAMP into the media.
Media containing released intracellular cAMP was transferred to a 96-well flash plate coated with scintillant fluid containing an anti-cAMP antibody. In this assay, intracellular cAMP competes with ^125I-labeled cAMP binding to the antibody. To generate a standard curve, cAMP ranging from 2.5 to 250 pmoles/ml was included in the experiment. [^125I]-cAMP was measured on a TopCount scintillation counter (Perkin Elmer, Mass., U.S.A).
Individual agonist concentration-response curve data were fitted to the Hill equation, see formula below, using GraphPad Prism (Graphpad Software, La Jolla, Calif., U.S.A.), to provide estimates of agonist concentration needed to generate one-half maximal response (A50), and the maximal asymptote (α) and Hill slope (nH) parameters. In this equation, [A] is the agonist concentration and E is the measured effect:
For display purposes the mean fitted parameter estimates were used to generate a single E/[A] curve shown superimposed on the mean experimental data. Potency estimates for agonists, pA50, are expressed as the negative logarithm of the midpoint of each curve and listed with their standard error of measurement (SEM). Logarithm base 10 of the agonist dose ratio (Log DR) values were calculated by subtraction of the test compound pA50 value from the corresponding h-SCP (SEQ ID NO:1) control pA50 value within the same assay batch. The SEM values of the Log DR values are given by the square root of the sum of the squared SEM values of the h-SCP (SEQ ID NO:1) control and test compound pA50 values.
Human and rat peptides (see Table 10) were used on the stimulation of h-CRHR1 or h-CRHR2 transfected SK—N-MC cells in the cAMP flash plate assay. Peptides were incubated for 1 hr at 37° Celsius. Curves were calculated using non-linear regression sigmoidal concentration-response analysis calculation in GraphPad Prism. The so obtained pA50 values are shown in Table 11 in addition to literature values. […]

[1] = Table 13, cysteine mutation, N-ethylmaleimide capping, pegylation

| Molecule | EC50 [1] [nM] | Log DR [M] (Table 13) | nH (Table 12) | EC50 (Table 12, amidation and N-terminal deletions, normalized to maximum response to h-SCP, 3-5 replicate experiments) | αmax (Table 12, normalized to the maximum response to h-SCP) |
| --- | --- | --- | --- | --- | --- |
| TKFTLSLDVPTNIMNLLFNIAKAKNLRACAAANAHLMAQI-NH2 [SEQ ID NO: 30, TKFTLSLDVPTNIMNLLFNIAKAKNLRACAAANAHLMAQI-NH2] | 3.98 | 1.28 | – | – | – |
| H-TKFTLSLDVPTNIMNLLFNIAKAKNLRAQACANAHLMAQI-NH2 [SEQ ID NO: 32, TKFTLSLDVPTNIMNLLFNIAKAKNLRAQACANAHLMAQI-NH2] | 0.389 | 0.11 | – | – | – |
| TKFTLSLDVPTNIMNLLFNIAKAKNLRAQCAANAHLMAQI-NH2 [SEQ ID NO: 31, TKFTLSLDVPTNIMNLLFNIAKAKNLRAQCAANAHLMAQI-NH2] | 9.55 | 1.61 | – | – | – |
| CC[C@H](C)[C@H](NC(=O)[C@H](CCC(N)=O)NC(=O)[C@H](C)NC(=O)[C@H](CCSC)NC(=O)[C@H](CC(C)C)NC(=O)[C@H](Cc1c[nH]cn1)NC(=O)[C@H](C)NC(=O)[C@H](CC(N)=O)NC(=O)[C@H](C)NC(=O)[C@H](CSC1CC(=O)N(CC)C1=O)NC(=O)[C@H](C)NC(=O)[C@H](CCC(N)=O)NC(=O)[C@H](C)NC(=O)[C@H](CCCNC(=N)N)NC(=O)[C@H](CC(C)C)NC(=O)[C@H](CC(N)=O)NC(=O)[C@H](CCCCN)NC(=O)[C@H](C)NC(=O)[C@H](CCCCN)NC(=O)[C@H](C)NC(=O)[C@@H](NC(=O)[C@H](CC(N)=O)NC(=O)[C@H](Cc1ccccc1)NC(=O)[C@H](CC(C)C)NC(=O)[C@H](CC(C)C)NC(=O)[C@H](CC(N)=O)NC(=O)[C@H](CCSC)NC(=O)[C@@H](NC(=O)[C@H](CC(N)=O)NC(=O)[C@@H](NC(=O)[C@@H]1CCCN1C(=O)[C@@H](NC(=O)[C@H](CC(=O)O)NC(=O)[C@H](CC(C)C)NC(=O)[C@H](CO)NC(=O)[C@H](CC(C)C)NC(=O)[C@@H](NC(=O)[C@H](Cc1ccccc1)NC(=O)[C@H](CCCCN)NC(=O)[C@@H](N)[C@@H](C)O)[C@@H](C)O)C(C)C)[C@@H](C)O)[C@@H](C)CC)[C@@H](C)CC)C(N)=O (stereo partly shown) [SEQ ID NO: 46, TKFTLSLDVPTNIMNLLFNIAKAKNLRAQAC(-NES)ANAH LMAQI-NH2] (H-TKFTLSLDVPTNIMNLLFNIAKAKNLRAQAC(Succinimide(1-Et,3-yl))ANAHLMAQI-NH2; N-terminus assumed) | 0.372 | 0.04 | – | – | – |
| TKFTLSLDVPTNIMNLLFNIAKAKNLRAQAAANAHLMACI-NH2 [SEQ ID NO: 40, TKFTLSLDVPTNIMNLLFNIAKAKNLRAQAAANAHLMACI-NH2] | 0.832 | 0.55 | – | – | – |
| CC[C@H](C)[C@H](NC(=O)[C@H](CCC(N)=O)NC(=O)[C@H](C)NC(=O)[C@H](CCSC)NC(=O)[C@H](CC(C)C)NC(=O)[C@H](Cc1c[nH]cn1)NC(=O)[C@H](C)NC(=O)[C@H](CC(N)=O)NC(=O)[C@H](C)NC(=O)[C@H](C)NC(=O)[C@H](C)NC(=O)[C@H](CCC(N)=O)NC(=O)[C@H](C)NC(=O)[C@H](CCCNC(=N)N)NC(=O)[C@H](CC(C)C)NC(=O)[C@H](CC(N)=O)NC(=O)[C@H](CSC1CC(=O)N(CC)C1=O)NC(=O)[C@H](C)NC(=O)[C@H](CCCCN)NC(=O)[C@H](C)NC(=O)[C@@H](NC(=O)[C@H](CC(N)=O)NC(=O)[C@H](Cc1ccccc1)NC(=O)[C@H](CC(C)C)NC(=O)[C@H](CC(C)C)NC(=O)[C@H](CC(N)=O)NC(=O)[C@H](CCSC)NC(=O)[C@@H](NC(=O)[C@H](CC(N)=O)NC(=O)[C@@H](NC(=O)[C@@H]1CCCN1C(=O)[C@@H](NC(=O)[C@H](CC(=O)O)NC(=O)[C@H](CC(C)C)NC(=O)[C@H](CO)NC(=O)[C@H](CC(C)C)NC(=O)[C@@H](NC(=O)[C@H](Cc1ccccc1)NC(=O)[C@H](CCCCN)NC(=O)[C@@H](N)[C@@H](C)O)[C@@H](C)O)C(C)C)[C@@H](C)O)[C@@H](C)CC)[C@@H](C)CC)C(N)=O (stereo partly shown) [SEQ ID NO: 50, TKFTLSLDVPTNIMNLLFNIAKAC(-NES)N LRAQA AANAH LMAQI-NH2] (H-TKFTLSLDVPTNIMNLLFNIAKAC(Succinimide(1-Et,3-yl))NLRAQAAANAHLMAQI-NH2; N-terminus assumed) | 0.331 | −0.01 | – | – | – |
| TKFTLCLDVPTNIMNLLFNIAKAKNLRAQAAANAHLMAQI-NH2 [SEQ ID NO: 7, TKFTLCLDVPTNIMNLLFNIAKAKNLRAQAAANAHLMAQI-NH2] | 25.1 | 2.08 | – | – | – |
| TKFTLSCDVPTNIMNLLFNIAKAKNLRAQAAANAHLMAQI-NH2 [SEQ ID NO: 8, TKFTLSCDVPTNIMNLLFNIAKAKNLRAQAAANAHLMAQI-NH2] | ~151 | 2.86 | – | – | – |
| CC[C@H](C)[C@H](NC(=O)[C@H](CCC(N)=O)NC(=O)[C@H](C)NC(=O)[C@H](CCSC)NC(=O)[C@H](CC(C)C)NC(=O)[C@H](Cc1c[nH]cn1)NC(=O)[C@H](C)NC(=O)[C@H](CC(N)=O)NC(=O)[C@H](C)NC(=O)[C@H](C)NC(=O)[C@H](C)NC(=O)[C@H](CCC(N)=O)NC(=O)[C@H](C)NC(=O)[C@H](CCCNC(=N)N)NC(=O)[C@H](CC(C)C)NC(=O)[C@H](CC(N)=O)NC(=O)[C@H](CCCCN)NC(=O)[C@H](C)NC(=O)[C@H](CCCCN)NC(=O)[C@H](C)NC(=O)[C@@H](NC(=O)[C@H](CC(N)=O)NC(=O)[C@H](Cc1ccccc1)NC(=O)[C@H](CC(C)C)NC(=O)[C@H](CSC1CC(=O)N(CC)C1=O)NC(=O)[C@H](CC(N)=O)NC(=O)[C@H](CCSC)NC(=O)[C@@H](NC(=O)[C@H](CC(N)=O)NC(=O)[C@@H](NC(=O)[C@@H]1CCCN1C(=O)[C@@H](NC(=O)[C@H](CC(=O)O)NC(=O)[C@H](CC(C)C)NC(=O)[C@H](CO)NC(=O)[C@H](CC(C)C)NC(=O)[C@@H](NC(=O)[C@H](Cc1ccccc1)NC(=O)[C@H](CCCCN)NC(=O)[C@@H](N)[C@@H](C)O)[C@@H](C)O)C(C)C)[C@@H](C)O)[C@@H](C)CC)[C@@H](C)CC)C(N)=O (stereo partly shown) [SEQ ID NO: 54, TKFTL SLDVP TNIMN C(-NES)LFNI AKAKN LRAQA AANAH LMAQI-NH2] (H-TKFTLSLDVPTNIMNC(Succinimide(1-Et,3-yl))LFNIAKAKNLRAQAAANAHLMAQI-NH2; N-terminus assumed) | 0.282 | −0.08 | – | – | – |
| TKFTLSLDVPTNIMNLLFNIAKAKNLRAQAAACAHLMAQI-NH2 [SEQ ID NO: 34, TKFTLSLDVPTNIMNLLFNIAKAKNLRAQAAACAHLMAQI-NH2] | ~479 | >3.19 | – | – | – |
| TKFTLSLDVPTNIMNLLFNIAKAKNLRAQAAANAHLCAQI-NH2 [SEQ ID NO: 38, TKFTLSLDVPTNIMNLLFNIAKAKNLRAQAAANAHLCAQI-NH2] | ~214 | >2.95 | – | – | – |
| LSLDVPTNIMNLLFNIAKAKNLRAQAAANAHLMAQI-NH2 [SEQ ID NO: 109, LSLDVPTNIMNLLFNIAKAKNLRAQAAANAHLMAQI-NH2] | – | – | 0.74 | 46.8 nM and 45.7 nM | 109.6 |
